Measurements: patent US20250205158A1, “BIODEGRADABLE LIPIDS AND FORMULATIONS FOR DELIVERY OF MRNA” (Massachusetts Institute of Technology, priority 2023, published 2025)

Columns and labels:
[1] = LNP characterization (diameter, PDI, % EE); type: physicochemical; conditions: LNP formulated with the named lipid
Description: Representative LNP Characterization Data. The diameter, polydispersity index (PDI), and % EE were characterized for various LNPs.
LNP characterization. Concentration of mRNA was determined using a Quant-IT Ribogreen assay. LNPs were diluted in either native TE buffer (ThermoFisher) or denaturing TE buffer+0.5% Triton-X 100 (Millipore-Sigma) to measure the “free” and total mRNA, respectively. 100 μL of these unknowns were added to a black 96-well plate. Separately, standard curves ranging from 2 ng/μL-0 ng/μL were prepared in each of these buffers and 100 μL were added to the same 96-well plate. Finally, Quant-IT Ribogreen reagent (ThermoFisher) was diluted 1:200 in TE buffer and 100 μL of this solution was added to each of the wells. The well plate was then mixed at 400 rpm with a plate shaker for 5 mins. and the fluorescence was read with an excitation/emission of 485/535. LNPs were measured in triplicate and standards were measured in duplicate. RNA concentration in each of the unknown wells was calculated by fitting the standard curves with a linear trendline. Encapsulation efficiency (% EE) was calculated according to: […]
Dynamic light scattering and zeta potential measurements were performed using a Malvern Zetasizer system. The reported diameter and PDI were obtained from the cumulants fit of the autocorrelation function. Zeta potential measurements were performed in 0.1×PBS, pH 7.4 and calculated using the Smoluchowski approximation.

mice = conditions: female BALB/cJ mice, 6 hours after the boost dose

## CCCCCC/C=C\CCCC(=O)OCC(O)CN1CCN(CC(O)COC(=O)CCC/C=C\CCCCCC)CCN(CC(O)COC(=O)CCC/C=C\CCCCCC)CCN(CC(O)COC(=O)CCC/C=C\CCCCCC)CCN(CC(O)COC(=O)CCC/C=C\CCCCCC)CCN(CC(O)COC(=O)CCC/C=C\CCCCCC)CC1 (centres unmarked) [AMG1541]
[1]; Ribogreen assay
  EE %: 86.0935%
[1]; dynamic light scattering
  Diameter (nm): 85 nm
  PDI: 0.107
mice
  fold higher serum IL-2 than in SM-102 vaccinated mice: 5 fold
mice; except IL-2
  serum cytokine levels compared with SM-102: comparable cytokine levels
